Source: publication PMC8624133, “10th Trends in Medical Mycology Held on 8 to 11 October 2021, Aberdeen, Scotland, Organized by the European Confederation of Medical Mycology (ECMM)” (Journal of Fungi, 2021)
Converted amounts (≈) assume the structure as drawn.

Tests used:
[1] = tested on: Rhizopus arrhizus; experiment: E test; format: cell-based
[2] = tested on: R. delemar 99–880; experiment: CLSI M38 in vitro susceptibility; format: cell-based, Rhizopus delemar; conditions: Rhizopus delemar, read-out: MIC at 100% inhibition of growth
Procedure: (§1) Methods & Materials: In vitro susceptibility was conducted by the CLSI M38 method using a clinical isolate of Rhizopus delemar (a common cause of mucormycosis). ICR mice were immunosuppressed with cyclophosphamide and cortisone acetate on days −2, +3, and +8, relative to infection with intratracheally instilled R. delemar. […] Mice survival through Day +21 served as the primary endpoint.

[3] = tested on: A. fumigatus strains; experiment: EUCAST E.DEF 9.3.2 broth microdilution; format: cell-based, Aspergillus fumigatus; parameters: MIC Range: unit not given beside the values; MIC50 / MIC90: unit not given here
Procedure: Methods: The research was conducted on 29 A. fumigatus strains. Minimum inhibitory concentrations (MIC) were detected by broth microdilution method (BM) following EUCAST definitive document E.DEF 9.3.2 and E-test in accordance with manufacturer instructions.

[4] = tested on: C. tropicalis; experiment: ARIA surveillance, CLSI M27 broth microdilution; format: cell-based, Candida tropicalis
Procedure: Materials & Methods: Isolates (n = 730) were collected and re-identified by MALDI-TOF or molecular methods. […] Percentage susceptibility (%S) or wild-type (%WT) were calculated according to CLSI breakpoints (CLSI supplement M60) or epidemiological cut-off values (CLSI supplement M59), respectively.

[5] = tested on: Exophiala phaeomuriformis; experiment: MIC, CLSI M27-A3; format: cell-based; conditions: read-out: MIC values
Procedure: Materials & Methods: The aviation kerosone samples came from an aviation company in Porto Alegre, state of Rio Grande do Sul, Brazil. The fungi isolation was carried out using the modified ASTM D6974-09 Standard. In this procedure, 500 mL kerosene samples were filtered, in triplicate, under aseptic conditions, under vacuum, using a 0.22 μm membrane (Millipore). After filtering, the membranes were deposited in potato dextrose agar culture medium. The plates were incubated in an oven at 30 °C for seven days. After this period, the colonies were isolated in new culture media for purification of the isolates. Molecular identification was performed through the sequencing of ITS DNA regions. The profile of sensitivity to clinical antifungals was assessed following protocols M27-A3 of the Clinical and Laboratory Standards Institute (CLSI).

[6] = tested on: A. fumigatus veterinary isolates; experiment: EUCAST microdilution of veterinary isolates; format: cell-based, Aspergillus fumigatus
Procedure: All have been confirmed as A. fumigatus by MALDI-TOF MS using the BCCM/IHEM database. The antifungal susceptibility was evaluated using the microdilution EUCAST method. Cyp51A gene sequencing has been performed on all resistant isolates.

[7] = tested on: Phaeoacremonium parasiticum; experiment: Antifungal susceptibility testing; format: cell-based
Procedure: Results: Cultures for bacteria were sterile. Culture on Sabouraud was positive after 5 days of incubation, showing slow growing and initially white colonies. […] Its identification was performed by sequencing the internal transcribed spacer (ITS) region of ribosomal DNA, being the isolate identified as Phaeoacremonium parasiticum (100% homology).

[8] = tested on: Scedosporium apiospermum; experiment: EUCAST reference method MIC; format: cell-based
Procedure: Case presentation: A patient presented with a bursitis of their left elbow. Six months before they were treated with lymphodepleting chemotherapy directly followed by B-cell associated CD19-specific chimeric antigen receptor (CAR) T cell therapy for recurrence of follicular lymphoma. They were considered immunocompromised, with total neutrophils and lymphocytes slightly below normal levels, absent B-cells, and a treatment associated persistent hypogammaglobulinaemia. Four weeks before presentation at our hospital they contacted their GP because of swelling and pain of their left elbow. Their GP aspirated fluid from their elbow, injected steroids and started antibiotics, but now there was recurrence of swelling and pain. Bursitis without arthritis was diagnosed by a rheumatologist and the bursa was surgically opened and drained, relieving pus. The patient was started on oral flucloxacillin and sent home. Two days later the culture of the pus from the bursa grew white colonies on a Sabouraud dextrose agar plate, showing long conidophores with large oval conidia on microscopy. […] Over the next few weeks the bursitis symptoms diminished. […] Voriconazole is considered first line treatment for Scedosporium infections. […] Eight weeks later there were no signs of bursitis and posaconazole was discontinued.

[9] = tested on: R. delemar; experiment: Murine mucormycosis, immunosuppressed mice infected intratracheally; format: in vivo, ICR mice; conditions: n = 20/arm
Procedure: as §1

[10] = tested on: C. auris Isolate B and Isolate C; experiment: microbe, parasite or virus in culture; format: cell-based, Candida auris
[11] = tested on: A. niger complex; experiment: EUCAST E.Def 9.3.2 susceptibility, CPA isolates; format: cell-based, Aspergillus niger complex; conditions: n = 7, ECOFFs
[12] = Triazole drug levels in ABPA patients with asthma; format: in vivo, human; conditions: 452 patients, Oct 2009 to March 2021
From the text: Materials & Methods: This was a retrospective single-centre cohort study evaluating longitudinal outcomes in non-cystic fibrosis (CF) ABPA patients with underlying chronic lung disease (asthma), and description of treatment approaches. Statistical Analysis System (SAS) programming was used for data integration from multiple hospital electronic systems, for patient identification and data analysis. Criteria for inclusion were patients with a background of asthma, serum Total IgE >1000 IU/mL and a positive Aspergillus IgE, with or without a positive culture for A. fumigatus from a respiratory sample. Data collected included demographics, lung function severity, disease activity serological markers (Aspergillus IgE, Aspergillus IgG, Total IgE) and triazole levels. In this study the impact of fungal therapy on disease outcomes was assessed.

[13] = tested on: A. fumigatus (resistant to posaconazole strain v79-63); experiment: Neutropenic animal model of invasive pulmonary aspergillosis; format: in vivo, CD-1 mice
[14] = tested on: Rasamsonia argillacea species complex; experiment: Antifungal susceptibility testing; format: cell-based; conditions: sputum isolate of a CF patient
[15] = tested on: A. fumigatus clinical isolates; experiment: Susceptibility of clinical isolates from CF patients; conditions: all 10 clinical isolates
[16] = tested on: A. fumigatus complex; conditions: share of isolates, n = 59, EUCAST clinical breakpoints
[17] = tested on: A. fumigatus strain v79-63; experiment: EUCAST MIC of the infecting strain; format: cell-based; conditions: Aspergillus fumigatus, V7963
[18] = tested on: C. auris clinical strains; experiment: organism not typed; format: cell-based, Candida auris; conditions: range, 78 strains from patients with COVID-19
[19] = tested on: McLDM strains; experiment: EUCAST MIC, S. cerevisiae overexpressing M. circinelloides LDM, resistance phenotypes; format: cell-based, Saccharomyces cerevisiae
[20] = tested on: azole-resistant A. fumigatus SS clinical strains; experiment: EUCAST E.DEF 9.3.2; format: cell-based; conditions: Aspergillus fumigatus
[21] = tested on: eumycetoma; conditions: in vivo; cited from earlier work
From the text: Mycetoma: Mycetoma is a chronic, progressive, implantation inflammatory disease characterised by severe and stigmatising deformities, disability, and high morbidity. The disease is caused by fungi (eumycetoma) and several Actinomycetales members (actinomycetoma). Its estimative global burden is 9000 cases. There are no robust epidemiological studies on mycetoma in SA, but it is tconsidered the third most prevalent endemic IM in SA, especially among low socioeconomic adult males living in rural areas from Argentina, Brazil, Colombia and Venezuela, where the principal agents are Madurella spp. a ...

CC[C@@H]([C@H](C)O)n1ncn(-c2ccc(N3CCN(c4ccc(OC[C@@H]5CO[C@@](Cn6cncn6)(c6ccc(F)cc6F)C5)cc4)CC3)cc2)c1=O [posaconazole]
MIC [1]: > 32 µg/mL | MIC [2]: 0.5 µg/mL (≈ 0.713 µM) | MIC50 ([3]; 28 h): 0.25 | MIC90 ([3]; 28 h): 0.5 | MIC Range ([3]; 28 h, 29 strains): 0.125–2 | MIC50 ([3]; 48 h): 0.25 | MIC90 ([3]; 48 h): 0.5 | MIC Range ([3]; 48 h): 0.125–4 | WT ([4]; Argentina): 57.1% | WT ([4]; Australia, Panama, USA and Taiwan): > 90% | WT ([4]; Italy): 47.4% | MIC [5]: 0.125 µg/mL (≈ 0.178 µM) | isolates in the area of technical uncertainty (ATU) [6]: 60% | minimal inhibitory concentrations (MIC), in words [7]: low | MIC ([8]; first isolate from bursa pus): 1 µg/mL (≈ 1.43 µM) | MIC ([8]; isolate two months later, under posaconazole): 2 µg/mL (≈ 2.85 µM) | % Survival ([9]; through Day +21, placebo 0): 25% | Median Survival ([9]; treatment from 24 h post infection, IBREXA 30 mg/kg po BID 7 d, LAMB 10 mg/kg iv 4 d, POSA 30 mg/kg po QD 7 d, placebo 8): 13 days | change of MIC [10]: largely unchanged | reduction in MIC ([10]; Isolate C with ERG11 WT in place of K143R): 2 fold | Non-wild type isolates [11]: 43% | median trough drug level [12]: 1.39 mg/L | log10CFU/lung ([13]; mean ± SEM, 3 animals treated for 3 d, placebo 6.1 ± 0.08): 5.2 ± 0.48 log10CFU/lung | survival rates ([13]; survival recorded until 15 d, IL-18 10 ng/mouse intranasally daily -2 d till +7 d, posaconazole 16 mg/kg/day, groups of 10, control 20%): 56% | minimal inhibitory concentrations (MIC) [14]: high minimal inhibitory concentrations | susceptibility [15]: susceptible | Resistance [16]: 5% | MIC [17]: > 16 µg/mL | MIC [18]: 0.06 to 8 µg/mL (≈ 0.0856 to 11.4 µM) | MICs compared to AD2Δ [19]: not affected | MIC ([20]; strain from pleural fluid of an ICU patient, no mutations in cyp51A): 0.5 µg/mL (≈ 0.713 µM) | MIC ([20]; two strains from a cystic fibrosis patient, TR34/L98H): 1 µg/mL (≈ 1.43 µM) | Cure rate [21]: 25–35%
